Assay results: patent publication US10538544B1, “Method for administering cisplatin and a thiocyanate complex to treat ovarian cancer” (priority 2018, dated 2020)

Experiments:
[1] = system: A2780 S (cisplatin sensitive) human ovarian tumor cell line; experiment: MTT assay, cell viability, 72 h, A2780 S; assay type: cell-based; conditions: read-out: IC50 Values against A2780 S
Method: (§1) MTT assay. The IC50 values in 72 hours of the compounds on human ovarian tumor cell lines, A2780 S (cisplatin sensitive) and A2780 CR (cisplatin resistance) were identified by cell viability test. 6000 cells per well in 100 μL cell media were seeded. After 24 h, all supernatant was aspirated out. Then 200 μL of drug solution is added to the first column of each well, and 100 μL of medium were added into the remaining well. The 100 μL of drug solution from first column was taken and mix well with the next column by repeated pipetting using a multichannel pipettor. The last two columns were leaved without drug addition to serve as blank control. After 72 h, supernatants in each well was replaced with 100 μL of 10% MTT (3-(4,5-dimethylthiazol-2-yl)-2,5-diphenyltetrazolium bromide) tetrazolium reduction assay solution, and incubated for at least 45 minutes at 37° C. After aspirating incubated solution, 100 μL of DMSO was added into each well to dissolve formazan crystals. The plates were then read using plate reader at 570 nm. The in vitro cytotoxicity of three platinum complexes (1), (2) and (3) was evaluated against a pair human ovarian tumor cell lines, A2780 S (cisplatin sensitive) and A2780 CR (cisplatin resistant). For comparison, anticancer activity of cisplatin was also evaluated under the same conditions. The IC50 values and cell viability curves are shown in Table 3 and FIG. 5 respectively.

[2] = system: A2780 CR (cisplatin resistant) human ovarian tumor cell line; experiment: MTT assay, cell viability, 72 h, A2780 CR; assay type: cell-based; conditions: for IC50: MTT, 72 h, A2780 CR (cisplatin resistant), read-out: IC50 Values against A2780 CR; for Resistance factor: calculated from IC50 in A2780 CR and A2780 S
Method: as §1

[3] = background, literature; cited from earlier work
[4] = background, literature; cited from earlier work; remark: listed apart in the source

Row | Compound | IC50 [1] [µM] | IC50 [2] [µM] | Resistance factor [2] | cytotoxicity compared with cisplatin against A2780 CR cells ([2]; A2780 CR cells, in words) | effectiveness as antiproliferative agent compared with cisplatin [3] | renal toxicity compared with cisplatin [4]
1 | N.N.[Cl][Pt][Cl] [Cisplatin] | 0.33 ± 0.011 | 6.37 ± 1 | 19.20 | – | – | –
2 | CC(C)N(C(=S)[S-])C(C)C.CC(C)N(C(=S)[S-])C(C)C.[Pt+2] [(3), [Pt(S2CN^i Pr2)2]] | 8.92 ± 0.58 | 8.83 ± 0.83 | 1.00 | – | – | –
3 | CC(C)CN(CC(C)C)C(=S)[S-].CC(C)CN(CC(C)C)C(=S)[S-].[Pt+2] [(1), [Pt(S2CN^i Bu2)2]] | 5 ± 0.097 | 5.91 ± 0.92 | 1.18 | better cytotoxicity than cisplatin | – | –
4 | [Pt(S2CNBn2)2].py [(2)] | 16.4 ± 1.35 | 15 ± 1.21 | 0.92 | – | – | –
5 | [Pt(ESDT)(Py)Cl] | – | – | – | – | more effective as antiproliferative agent than cisplatin | much lower renal toxicity
